Measured values taken from PubChem BioAssay (NCI).
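The concentration for 50% growth inhibition is given as GI50. At the TGI there is no net growth.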

Key:
Experiment in all cases: inhibition of tumour cell growth, NCI panel, 384-well format
[1] = test system: K-562 leukemia
[2] = test system: LOX IMVI melanoma
[3] = test system: SK-OV-3 ovarian
[4] = test system: MDA-MB-231 breast
[5] = test system: M14 melanoma
[6] = test system: HOP-92 NSCLC
[7] = test system: HL-60(TB) leukemia
[8] = test system: HS 578T breast
[9] = test system: RPMI-8226 leukemia
[10] = test system: NCI-H460 NSCLC
[11] = test system: HCC-2998 colon
[12] = test system: DU-145 prostate
[13] = test system: MDA-MB-435 melanoma
[14] = test system: A549 NSCLC
[15] = test system: HCT-15 colon
[16] = test system: IGROV1 ovarian
[17] = test system: EKVX NSCLC
[18] = test system: MDA-MB-468 breast
[19] = test system: RXF 393 renal
[20] = test system: HOP-62 NSCLC
[21] = test system: NCI-H322M lung
[22] = test system: SF-295 CNS
[23] = test system: CAKI-1 renal
[24] = test system: UACC-257 melanoma
[25] = test system: 786-0 renal
[26] = test system: SK-MEL-5 melanoma
[27] = test system: MCF7 breast
[28] = test system: SW-620 colon
[29] = test system: SK-MEL-2 melanoma
[30] = test system: MOLT-4 leukemia
[31] = test system: NCI/ADR-RES ovarian
[32] = test system: BT-549 breast
[33] = test system: HCT-116 colon
[34] = test system: COLO 205 colon
[35] = test system: HT29 colon
[36] = test system: OVCAR-3 ovarian
[37] = test system: KM12 colon
[38] = test system: SF-268 CNS
[39] = test system: TK-10 renal
[40] = test system: T-47D breast
[41] = test system: SN12C renal
[42] = test system: OVCAR-8 ovarian
[43] = test system: OVCAR-4 ovarian
[44] = test system: SR leukemia
[45] = test system: MALME-3M melanoma
[46] = test system: SK-MEL-28 melanoma
[47] = test system: SNB-75 CNS
[48] = test system: A498 renal
[49] = test system: NCI-H23 lung
[50] = test system: OVCAR-5 ovarian
[51] = test system: SF-539 CNS
[52] = test system: CCRF-CEM leukemia
[53] = test system: UACC-62 melanoma
[54] = test system: ACHN renal
[55] = test system: U251 glioblastoma
[56] = test system: SNB-19 CNS
[57] = test system: PC-3 prostate
[58] = test system: NCI-H226 lung
[59] = test system: NCI-H522 lung

Q: With `COc1ccc(S(=O)(=O)N2CCNCC2)cc1OC` as the molecule, how does the GI50 [1] read?
A: Its GI50 is > 100 µM.

Q: What about the TGI [1] of the same molecule?
A: The TGI was > 100 µM.

Q: And the GI50 [2]?
A: Its GI50 is > 100 µM.

Q: And the TGI [2]?
A: Its TGI is > 100 µM.

Q: And the GI50 [3]?
A: The GI50 was > 100 µM.

Q: What about the TGI [3] of the same molecule?
A: Its TGI is > 100 µM.

Q: And the GI50 [4]?
A: Its GI50 is > 100 µM.

Q: And the TGI [4]?
A: Its TGI is > 100 µM.

Q: What about the GI50 [5] of the same molecule?
A: Its GI50 is > 100 µM.

Q: What about the TGI [5] of the same molecule?
A: The TGI was > 100 µM.

Q: What about the GI50 [6] of the same molecule?
A: The GI50 was > 100 µM.

Q: What about the TGI [6] of the same molecule?
A: The TGI was > 100 µM.

Q: And the GI50 [7]?
A: Its GI50 is > 100 µM.

Q: And the TGI [7]?
A: Its TGI is > 100 µM.

Q: And the GI50 [8]?
A: The GI50 was > 100 µM.

Q: And the TGI [8]?
A: The TGI was > 100 µM.

Q: And the GI50 [9]?
A: The GI50 was > 100 µM.

Q: What about the TGI [9] of the same molecule?
A: Its TGI is > 100 µM.

Q: What about the GI50 [10] of the same molecule?
A: The GI50 was > 100 µM.

Q: What about the TGI [10] of the same molecule?
A: Its TGI is > 100 µM.

Q: And the GI50 [11]?
A: The GI50 was > 100 µM.

Q: And the TGI [11]?
A: Its TGI is > 100 µM.

Q: And the GI50 [12]?
A: Its GI50 is > 100 µM.

Q: What about the TGI [12] of the same molecule?
A: Its TGI is > 100 µM.

Q: What about the GI50 [13] of the same molecule?
A: Its GI50 is > 100 µM.

Q: And the TGI [13]?
A: Its TGI is > 100 µM.

Q: And the GI50 [14]?
A: The GI50 was > 100 µM.

Q: And the TGI [14]?
A: Its TGI is > 100 µM.

Q: And the GI50 [15]?
A: The GI50 was > 100 µM.

Q: What about the TGI [15] of the same molecule?
A: Its TGI is > 100 µM.

Q: What about the GI50 [16] of the same molecule?
A: The GI50 was > 100 µM.

Q: What about the TGI [16] of the same molecule?
A: The TGI was > 100 µM.

Q: And the GI50 [17]?
A: The GI50 was > 100 µM.

Q: What about the TGI [17] of the same molecule?
A: The TGI was > 100 µM.

Q: What about the GI50 [18] of the same molecule?
A: Its GI50 is > 100 µM.

Q: And the TGI [18]?
A: The TGI was > 100 µM.

Q: And the GI50 [19]?
A: The GI50 was > 100 µM.

Q: And the TGI [19]?
A: The TGI was > 100 µM.

Q: What about the GI50 [20] of the same molecule?
A: Its GI50 is > 100 µM.

Q: What about the TGI [20] of the same molecule?
A: The TGI was > 100 µM.

Q: And the GI50 [21]?
A: Its GI50 is > 100 µM.

Q: What about the TGI [21] of the same molecule?
A: Its TGI is > 100 µM.

Q: What about the GI50 [22] of the same molecule?
A: Its GI50 is > 100 µM.

Q: What about the TGI [22] of the same molecule?
A: Its TGI is > 100 µM.

Q: What about the GI50 [23] of the same molecule?
A: Its GI50 is > 100 µM.

Q: And the TGI [23]?
A: Its TGI is > 100 µM.

Q: What about the GI50 [24] of the same molecule?
A: Its GI50 is > 100 µM.

Q: And the TGI [24]?
A: The TGI was > 100 µM.

Q: And the GI50 [25]?
A: Its GI50 is > 100 µM.

Q: And the TGI [25]?
A: Its TGI is > 100 µM.

Q: What about the GI50 [26] of the same molecule?
A: Its GI50 is > 100 µM.

Q: What about the TGI [26] of the same molecule?
A: The TGI was > 100 µM.

Q: What about the GI50 [27] of the same molecule?
A: The GI50 was > 100 µM.

Q: And the TGI [27]?
A: Its TGI is > 100 µM.

Q: What about the GI50 [28] of the same molecule?
A: The GI50 was > 100 µM.

Q: And the TGI [28]?
A: Its TGI is > 100 µM.

Q: And the GI50 [29]?
A: The GI50 was > 100 µM.

Q: What about the TGI [29] of the same molecule?
A: The TGI was > 100 µM.

Q: And the GI50 [30]?
A: Its GI50 is > 100 µM.

Q: And the TGI [30]?
A: Its TGI is > 100 µM.

Q: And the GI50 [31]?
A: The GI50 was > 100 µM.

Q: And the TGI [31]?
A: Its TGI is > 100 µM.

Q: And the GI50 [32]?
A: Its GI50 is > 100 µM.

Q: And the TGI [32]?
A: Its TGI is > 100 µM.

Q: And the GI50 [33]?
A: Its GI50 is > 100 µM.

Q: What about the TGI [33] of the same molecule?
A: The TGI was > 100 µM.

Q: And the GI50 [34]?
A: Its GI50 is > 100 µM.

Q: And the TGI [34]?
A: Its TGI is > 100 µM.

Q: And the GI50 [35]?
A: The GI50 was > 100 µM.

Q: What about the TGI [35] of the same molecule?
A: The TGI was > 100 µM.

Q: And the GI50 [36]?
A: Its GI50 is > 100 µM.

Q: What about the TGI [36] of the same molecule?
A: Its TGI is > 100 µM.

Q: What about the GI50 [37] of the same molecule?
A: The GI50 was > 100 µM.

Q: What about the TGI [37] of the same molecule?
A: Its TGI is > 100 µM.

Q: What about the GI50 [38] of the same molecule?
A: Its GI50 is > 100 µM.

Q: What about the TGI [38] of the same molecule?
A: Its TGI is > 100 µM.

Q: And the GI50 [39]?
A: Its GI50 is > 100 µM.

Q: And the TGI [39]?
A: Its TGI is > 100 µM.

Q: And the GI50 [40]?
A: The GI50 was > 100 µM.

Q: What about the TGI [40] of the same molecule?
A: The TGI was > 100 µM.

Q: And the GI50 [41]?
A: Its GI50 is > 100 µM.

Q: And the TGI [41]?
A: The TGI was > 100 µM.

Q: And the GI50 [42]?
A: The GI50 was > 100 µM.

Q: What about the TGI [42] of the same molecule?
A: Its TGI is > 100 µM.

Q: And the GI50 [43]?
A: The GI50 was > 100 µM.

Q: And the TGI [43]?
A: Its TGI is > 100 µM.

Q: And the GI50 [44]?
A: Its GI50 is > 100 µM.

Q: And the TGI [44]?
A: Its TGI is > 100 µM.

Q: What about the GI50 [45] of the same molecule?
A: Its GI50 is > 100 µM.

Q: What about the TGI [45] of the same molecule?
A: The TGI was > 100 µM.

Q: What about the GI50 [46] of the same molecule?
A: The GI50 was > 100 µM.

Q: And the TGI [46]?
A: Its TGI is > 100 µM.

Q: What about the GI50 [47] of the same molecule?
A: The GI50 was > 100 µM.

Q: And the TGI [47]?
A: Its TGI is > 100 µM.

Q: What about the GI50 [48] of the same molecule?
A: The GI50 was > 100 µM.

Q: And the TGI [48]?
A: Its TGI is > 100 µM.

Q: What about the GI50 [49] of the same molecule?
A: The GI50 was > 100 µM.

Q: And the TGI [49]?
A: The TGI was > 100 µM.

Q: And the GI50 [50]?
A: The GI50 was > 100 µM.

Q: And the TGI [50]?
A: The TGI was > 100 µM.

Q: What about the GI50 [51] of the same molecule?
A: The GI50 was > 100 µM.

Q: What about the TGI [51] of the same molecule?
A: The TGI was > 100 µM.

Q: What about the GI50 [52] of the same molecule?
A: Its GI50 is > 100 µM.

Q: And the TGI [52]?
A: Its TGI is > 100 µM.

Q: And the GI50 [53]?
A: The GI50 was > 100 µM.

Q: What about the TGI [53] of the same molecule?
A: The TGI was > 100 µM.

Q: And the GI50 [54]?
A: Its GI50 is > 100 µM.

Q: And the TGI [54]?
A: Its TGI is > 100 µM.

Q: And the GI50 [55]?
A: Its GI50 is > 100 µM.

Q: What about the TGI [55] of the same molecule?
A: Its TGI is > 100 µM.

Q: And the GI50 [56]?
A: The GI50 was > 100 µM.

Q: And the TGI [56]?
A: The TGI was > 100 µM.

Q: What about the GI50 [57] of the same molecule?
A: Its GI50 is > 100 µM.

Q: And the TGI [57]?
A: Its TGI is > 100 µM.

Q: What about the GI50 [58] of the same molecule?
A: The GI50 was > 100 µM.

Q: What about the TGI [58] of the same molecule?
A: Its TGI is > 100 µM.

Q: What about the GI50 [59] of the same molecule?
A: The GI50 was > 100 µM.

Q: What about the TGI [59] of the same molecule?
A: Its TGI is > 100 µM.
